ChEMBL document CHEMBL4834398, “Synthesis of Yakuchinone B-Inspired Inhibitors against Islet Amyloid Polypeptide Aggregation” (J Nat Prod, 2021)
Active and inactive are the calls of the source. The calls are words filed in the database; no cut-off is given here.

Assays:
[1] = Protective activity against IAPP-induced toxicity in rat BRIN-B11 cells assessed as cell viability after 72 hrs by MTT assay; details: BRIN-BD11, 72 h
[2] = test system: BRIN-BD11; test: Protective activity against IAPP-induced toxicity in rat […] cells assessed as cell viability at 0.02 to 0.63 uM after 72 hrs by MTT assay; format: functional, cell-based; details: dose 0.02-0.63 µM
[3] = test system: BRIN-BD11; test: Protective activity against IAPP-induced toxicity in rat […] cells assessed as cell viability at 10 uM after 72 hrs by MTT assay; format: functional, cell-based
[4] = target: T1, Islet amyloid polypeptide (Homo sapiens, UniProt P10997); test: Inhibition of islet amyloid polypeptide (unknown origin) aggregation after 24 hrs by thioflavin T based fluorescence assay
T1 sequence (P10997 whole entry): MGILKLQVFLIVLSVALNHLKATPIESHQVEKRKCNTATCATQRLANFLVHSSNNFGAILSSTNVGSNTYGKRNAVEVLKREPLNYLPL

IC50 [4] [µM]	Compound	EC50 [1] [µM]	Activity [2]	Activity [3]
	CCCC(=O)/C=C/c1cccc(O)c1O	0.1	Active	
	CC(=O)/C=C/c1cccc(O)c1O			inactive
	CCCCC(=O)/C=C/c1cccc(O)c1O	0.2	Active	
3.7	CC(=O)/C=C/c1ccc(O)c(O)c1			
7.8	O=c1c(O)c(-c2ccc(O)cc2O)oc2cc(O)cc(O)c12 [MORIN]	1		
	CCC(=O)/C=C/c1cccc(O)c1O			inactive
> 10	CC(=O)CCc1ccc(O)c(O)c1			
